System: not listed separately
Experiment: Cytotoxicity against human PC3 cells after 48 hrs by MTT assay
Type: functional, cell-based
Conditions: PC-3, 48 h

| Structure (SMILES) | IC50 |
| --- | --- |
| Cn1c(=O)n(-c2ccc(C(C)(C)C#N)cc2)c2c3cc(-c4cnc5ccccc5c4)ccc3ncc21 [DACTOLISIB] | 12.3 µM |
| O=c1ccc2cc(OCc3cc(-c4ccccc4[N+](=O)[O-])no3)ccc2o1 | 8.2 µM |
| O=c1ccc2cc(OCc3cn(-c4cccc([N+](=O)[O-])c4)nn3)ccc2o1 | 49.3 µM |
| O=c1ccc2cc(OCc3cc(-c4ccccc4Cl)no3)ccc2o1 | 18.2 µM |
| COc1ccccc1-c1cc(COc2ccc3oc(=O)ccc3c2)on1 | 22.4 µM |
| N#Cc1ccccc1-c1cc(COc2ccc3oc(=O)ccc3c2)on1 | 13.6 µM |
| O=c1ccc2cc(OCc3cc(-c4ccccc4)no3)ccc2o1 | 53.2 µM |

System: not listed separately
Experiment: Cytotoxicity against human HCT116 cells after 48 hrs by MTT assay
Type: functional, cell-based
Conditions: HCT-116, 48 h

| Structure (SMILES) | IC50 |
| --- | --- |
| O=c1ccc2cc(OCc3cn(-c4ccc([N+](=O)[O-])cc4)nn3)ccc2o1 | 44.3 µM |
| Cn1c(=O)n(-c2ccc(C(C)(C)C#N)cc2)c2c3cc(-c4cnc5ccccc5c4)ccc3ncc21 [DACTOLISIB] | 0.044 µM |
| O=c1ccc2cc(OCc3cc(-c4ccc([N+](=O)[O-])cc4)no3)ccc2o1 | 42.2 µM |
| O=c1ccc2cc(OCc3cn(-c4ccccc4[N+](=O)[O-])nn3)ccc2o1 | 55.8 µM |
| O=c1ccc2cc(OCc3cc(-c4ccc5ccccc5c4)no3)ccc2o1 | 55.9 µM |
| O=c1ccc2cc(OCc3cn(-c4cccc([N+](=O)[O-])c4)nn3)ccc2o1 | 26.9 µM |
| O=c1ccc2cc(OCc3cn(-c4ccc(Cl)c(Cl)c4)nn3)ccc2o1 | 57.3 µM |
| O=c1ccc2cc(OCc3cc(-c4cccc(Cl)c4)no3)ccc2o1 | 42.1 µM |
| O=c1ccc2cc(OCc3cc(-c4cccc5ccccc45)no3)ccc2o1 | 51.5 µM |
| O=c1ccc2cc(O)ccc2o1 [6-HYDROXYCOUMARIN] | 46.2 µM |
| O=c1ccc2cc(OCc3cc(-c4cccc([N+](=O)[O-])c4)no3)ccc2o1 | 48.2 µM |
| O=c1ccc2cc(OCc3cc(-c4ccc(Cl)cc4)no3)ccc2o1 | 55.8 µM |
| COc1ccc(-n2cc(COc3ccc4oc(=O)ccc4c3)nn2)cc1 | 37.8 µM |
| O=c1ccc2cc(OCc3cn(-c4ccccc4)nn3)ccc2o1 | 51.5 µM |

System: COLO 205
Experiment: Cytotoxicity against human COLO205 cells after 48 hrs by MTT assay
Type: functional, cell-based
Conditions: COLO 205, 48 h

| Structure (SMILES) | IC50 |
| --- | --- |
| O=c1ccc2cc(OCc3cn(-c4ccc([N+](=O)[O-])cc4)nn3)ccc2o1 | 48.7 µM |
| Cn1c(=O)n(-c2ccc(C(C)(C)C#N)cc2)c2c3cc(-c4cnc5ccccc5c4)ccc3ncc21 [DACTOLISIB] | 0.085 µM |
| O=c1ccc2cc(OCc3cc(-c4ccc([N+](=O)[O-])cc4)no3)ccc2o1 | 47.8 µM |
| O=c1ccc2cc(OCc3cc(-c4ccc5ccccc5c4)no3)ccc2o1 | 48.7 µM |
| O=c1ccc2cc(OCc3cn(-c4cccc([N+](=O)[O-])c4)nn3)ccc2o1 | 36.6 µM |
| O=c1ccc2cc(OCc3cc(-c4cccc(Cl)c4)no3)ccc2o1 | 32.5 µM |
| O=c1ccc2cc(OCc3cc(-c4cccc5ccccc45)no3)ccc2o1 | 47.2 µM |
| O=c1ccc2cc(O)ccc2o1 [6-HYDROXYCOUMARIN] | 38.7 µM |
| O=c1ccc2cc(OCc3cc(-c4cccc([N+](=O)[O-])c4)no3)ccc2o1 | 48.3 µM |
| O=c1ccc2cc(OCc3cc(-c4ccc(Cl)cc4)no3)ccc2o1 | 44.5 µM |
| COc1ccc(-n2cc(COc3ccc4oc(=O)ccc4c3)nn2)cc1 | 32.8 µM |
| O=c1ccc2cc(OCc3cn(-c4ccccc4)nn3)ccc2o1 | 48.8 µM |

System: not listed separately
Experiment: Cytotoxicity against human HL60 cells after 48 hrs by MTT assay
Type: functional, cell-based
Conditions: HL-60, 48 h

| Structure (SMILES) | IC50 |
| --- | --- |
| O=c1ccc2cc(OCc3cn(-c4ccc([N+](=O)[O-])cc4)nn3)ccc2o1 | 46 µM |
| Cn1c(=O)n(-c2ccc(C(C)(C)C#N)cc2)c2c3cc(-c4cnc5ccccc5c4)ccc3ncc21 [DACTOLISIB] | 12.4 µM |
| O=c1ccc2cc(OCc3cc(-c4ccc([N+](=O)[O-])cc4)no3)ccc2o1 | 55.8 µM |
| O=c1ccc2cc(OCc3cn(-c4ccccc4[N+](=O)[O-])nn3)ccc2o1 | 44.6 µM |
| CC(=O)Nc1ccc(-n2cc(COc3ccc4oc(=O)ccc4c3)nn2)cc1 | 40.4 µM |
| O=c1ccc2cc(OCc3cc(-c4ccc5ccccc5c4)no3)ccc2o1 | 55.7 µM |
| O=c1ccc2cc(OCc3cn(-c4cccc([N+](=O)[O-])c4)nn3)ccc2o1 | 20.5 µM |
| O=c1ccc2cc(OCc3cn(-c4ccc(Cl)c(Cl)c4)nn3)ccc2o1 | 47.8 µM |
| O=c1ccc2cc(OCc3cc(-c4cccc(Cl)c4)no3)ccc2o1 | 50.6 µM |
| N#Cc1ccccc1-n1cc(COc2ccc3oc(=O)ccc3c2)nn1 | 52.1 µM |
| COc1ccccc1-n1cc(COc2ccc3oc(=O)ccc3c2)nn1 | 55.2 µM |
| O=c1ccc2cc(OCc3cc(-c4cccc5ccccc45)no3)ccc2o1 | 41.6 µM |
| O=c1ccc2cc(O)ccc2o1 [6-HYDROXYCOUMARIN] | 35 µM |
| O=c1ccc2cc(OCc3cc(-c4cccc([N+](=O)[O-])c4)no3)ccc2o1 | 44.4 µM |
| O=c1ccc2cc(OCc3cc(-c4ccc(Cl)cc4)no3)ccc2o1 | 44.6 µM |
| COc1ccc(-n2cc(COc3ccc4oc(=O)ccc4c3)nn2)cc1 | 46.4 µM |
| O=c1ccc2cc(OCc3cn(-c4ccccc4)nn3)ccc2o1 | 41.6 µM |
| O=c1ccc2cc(OCc3cc(-c4ccccc4)no3)ccc2o1 | 43.3 µM |

System: A549
Experiment: Cytotoxicity against human A549 cells after 48 hrs by MTT assay
Type: functional, cell-based
Conditions: A549, 48 h

| Structure (SMILES) | IC50 |
| --- | --- |
| O=c1ccc2cc(OCc3cn(-c4ccc([N+](=O)[O-])cc4)nn3)ccc2o1 | 33.6 µM |
| Cn1c(=O)n(-c2ccc(C(C)(C)C#N)cc2)c2c3cc(-c4cnc5ccccc5c4)ccc3ncc21 [DACTOLISIB] | 6.5 µM |
| N#CCc1ccc(-n2cc(COc3ccc4oc(=O)ccc4c3)nn2)cc1 | 29.2 µM |
| O=c1ccc2cc(OCc3cn(-c4ccccc4[N+](=O)[O-])nn3)ccc2o1 | 10.2 µM |
| C#CCOc1ccc2oc(=O)ccc2c1 | 24 µM |
| N#Cc1ccccc1-n1cc(COc2ccc3oc(=O)ccc3c2)nn1 | 12.6 µM |
| COc1ccccc1-n1cc(COc2ccc3oc(=O)ccc3c2)nn1 | 18.7 µM |
| O=c1ccc2cc(OCc3cc(-c4cccc([N+](=O)[O-])c4)no3)ccc2o1 | 36.2 µM |
| O=c1ccc2cc(OCc3cn(-c4cccc(CO)c4)nn3)ccc2o1 | 35.1 µM |
| O=c1ccc2cc(OCc3cn(-c4ccccc4Cl)nn3)ccc2o1 | 17.1 µM |
| N#Cc1ccccc1-c1cc(COc2ccc3oc(=O)ccc3c2)on1 | 55.8 µM |
| COc1ccc(-n2cc(COc3ccc4oc(=O)ccc4c3)nn2)cc1 | 46.8 µM |
